In patent US11053204B2, “Pyrimidinyloxy benzene derivatives as herbicides” (FMC Corporation, priority 2015, dated 2021):

Experiments:
Type in all cases: in vivo
[1] = tested on: galium (catchweed bedstraw, Galium aparine); assay: Test C preemergence, plant response rating
[2] = tested on: surinam grass (Brachiaria decumbens); assay: Test C preemergence, plant response rating
[3] = tested on: windgrass (Apera spica-venti); assay: Test C preemergence, plant response rating
[4] = tested on: nightshade (eastern black nightshade, Solanum ptycanthum); assay: Test C preemergence, plant response rating
[5] = tested on: pigweed, palmer (palmer pigweed, Amaranthus palmeri); assay: Test C preemergence, plant response rating
[6] = tested on: johnsongrass (Sorghum halepense); assay: Test C preemergence, plant response rating
[7] = tested on: oat, wild (wild oat Avena fatua); assay: Test C preemergence, plant response rating
[8] = tested on: barnyardgrass (Echinochloa crus-galli); assay: Test C preemergence, plant response rating; details: Preemergence
[9] = tested on: wild poinsettia (Euphorbia heterophylla); assay: Test C preemergence, plant response rating
[10] = tested on: buckwheat, wild (wild buckwheat, Polygonum convolvulus); assay: Test C postemergence, plant response rating; details: for Buckwheat, Wild plant response rating: scale 0 to 100 (0 no effect, 100 complete control)
Method in brief: (§1)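 Preemergence: seeds sown in loam–sand blend or silt loam and sprayed with test chemicals in a non-phytotoxic surfactant-containing solvent. Postemergence: potted plants at 2–18 cm (1–4-leaf stage) sprayed with the same formulation. After 13–15 d in greenhouse, visual rating versus controls on 0 (no effect) to 100 (complete control) scale.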

[11] = tested on: pigweed, palmer (palmer pigweed, Amaranthus palmeri); assay: Test C postemergence, plant response rating; details: for Pigweed, Palmer plant response rating: scale 0 to 100 (0 no effect, 100 complete control)
Method in brief: as §1

[12] = tested on: speedwell (bird's-eye speedwell, Veronica persica); assay: Test C postemergence, plant response rating; details: for Speedwell plant response rating: scale 0 to 100 (0 no effect, 100 complete control)
Method in brief: as §1

[13] = tested on: Canada thistle (Cirsium arvense); assay: Test C postemergence, plant response rating; details: for Canada Thistle plant response rating: scale 0 to 100 (0 no effect, 100 complete control)
Method in brief: as §1

[14] = tested on: geranium, cutleaf (cutleaf geranium, Geranium dissectum); assay: Test C postemergence, plant response rating; details: for Geranium, Cutleaf plant response rating: scale 0 to 100 (0 no effect, 100 complete control)
Method in brief: as §1

[15] = tested on: windgrass (Apera spica-venti); assay: Test C postemergence, plant response rating
Method in brief: as §1

[16] = tested on: wild mustard (Sinapis arvensis); assay: Test C postemergence, plant response rating; details: for Mustard, Wild plant response rating: scale 0 to 100 (0 no effect, 100 complete control)
Method in brief: as §1

[17] = tested on: nightshade (eastern black nightshade, Solanum ptycanthum); assay: Test C postemergence, plant response rating; details: for Nightshade plant response rating: scale 0 to 100 (0 no effect, 100 complete control)
Method in brief: as §1

[18] = tested on: field violet (Viola arvensis); assay: Test C postemergence, plant response rating; details: for Field Violet plant response rating: scale 0 to 100 (0 no effect, 100 complete control)
Method in brief: as §1

[19] = tested on: field poppy (Papaver rhoeas); assay: Test C postemergence, plant response rating; details: for Field Poppy plant response rating: scale 0 to 100 (0 no effect, 100 complete control)
Method in brief: as §1

O=C(CCCCC(F)(F)F)c1c(Br)cccc1Oc1ncc(Cl)cn1 [Compound 82]
Plant response rating, Galium ([1]; 31 g ai/ha, scale 0 to 100): 0
Plant response rating, Galium ([1]; 62 g ai/ha, scale 0 to 100): 0
Plant response rating, Galium ([1]; 125 g ai/ha, scale of 0 to 100): 80
Plant response rating, Surinam Grass ([2]; 31 g ai/ha, scale 0 to 100): 10
Plant response rating, Surinam Grass ([2]; 62 g ai/ha, scale 0 to 100): 25
Plant response rating, Surinam Grass ([2]; 125 g ai/ha, scale of 0 to 100): 35
Plant response rating, Windgrass ([3]; 31 g ai/ha, scale 0 to 100): 30
Plant response rating, Windgrass ([3]; 62 g ai/ha, scale 0 to 100): 80
Plant response rating, Windgrass ([3]; 125 g ai/ha, scale of 0 to 100): 90
Plant response rating, Nightshade ([4]; 31 g ai/ha, scale 0 to 100): 20
Plant response rating, Nightshade ([4]; 62 g ai/ha, scale 0 to 100): 40
Plant response rating, Nightshade ([4]; 125 g ai/ha, scale of 0 to 100): 85
Plant response rating, Pigweed, Palmer ([5]; 31 g ai/ha, scale 0 to 100): 85
Plant response rating, Pigweed, Palmer ([5]; 62 g ai/ha, scale 0 to 100): 100
Plant response rating, Pigweed, Palmer ([5]; 125 g ai/ha, scale of 0 to 100): 100
Plant response rating, Johnsongrass ([6]; 31 g ai/ha, scale 0 to 100): 5
Plant response rating, Johnsongrass ([6]; 62 g ai/ha, scale 0 to 100): 40
Plant response rating, Johnsongrass ([6]; 125 g ai/ha, scale of 0 to 100): 85
Plant response rating, Oat, Wild ([7]; 31 g ai/ha, scale 0 to 100): 0
Plant response rating, Oat, Wild ([7]; 62 g ai/ha, scale 0 to 100): 5
Plant response rating, Oat, Wild ([7]; 125 g ai/ha, scale of 0 to 100): 5
Plant response rating, Barnyardgrass ([8]; 125 g ai/ha, scale of 0 to 100): 90
Plant response rating, Barnyardgrass ([8]; 16 g ai/ha, scale 0 to 100): 5
Plant response rating, Barnyardgrass ([8]; 31 g ai/ha, scale 0 to 100): 5
Plant response rating, Barnyardgrass ([8]; 62 g ai/ha, scale 0 to 100): 20
Plant response rating, Poinsettia, Wild ([9]; 31 g ai/ha, scale 0 to 100): 0
Plant response rating, Poinsettia, Wild ([9]; 62 g ai/ha, scale 0 to 100): 0
Plant response rating, Poinsettia, Wild ([9]; 125 g ai/ha, scale of 0 to 100): 20
Plant response rating, Buckwheat, Wild ([10]; 16 g ai/ha, scale of 0 to 100): 80
Plant response rating, Buckwheat, Wild ([10]; 31 g ai/ha, scale 0 to 100): 70
Buckwheat, Wild plant response rating ([10]; 62 g ai/ha): 100
Buckwheat, Wild plant response rating ([10]; 125 g ai/ha): 100
Plant response rating, Pigweed, Palmer ([11]; 16 g ai/ha, scale of 0 to 100): 75
Plant response rating, Pigweed, Palmer ([11]; 31 g ai/ha, scale 0 to 100): 80
Pigweed, Palmer plant response rating ([11]; 62 g ai/ha): 98
Pigweed, Palmer plant response rating ([11]; 125 g ai/ha): 98
Plant response rating, Speedwell ([12]; 16 g ai/ha, scale of 0 to 100): 75
Plant response rating, Speedwell ([12]; 31 g ai/ha, scale 0 to 100): 85
Speedwell plant response rating ([12]; 62 g ai/ha): 95
Speedwell plant response rating ([12]; 125 g ai/ha): 95
Plant response rating, Canada Thistle ([13]; 16 g ai/ha, scale of 0 to 100): 85
Plant response rating, Canada Thistle ([13]; 31 g ai/ha, scale 0 to 100): 85
Canada Thistle plant response rating ([13]; 62 g ai/ha): 85
Canada Thistle plant response rating ([13]; 125 g ai/ha): 98
Plant response rating, Geranium, Cutleaf ([14]; 16 g ai/ha, scale of 0 to 100): 30
Plant response rating, Geranium, Cutleaf ([14]; 31 g ai/ha, scale 0 to 100): 30
Geranium, Cutleaf plant response rating ([14]; 62 g ai/ha): 40
Geranium, Cutleaf plant response rating ([14]; 125 g ai/ha): 60
Plant response rating, Windgrass ([15]; 16 g ai/ha, scale of 0 to 100): 10
Plant response rating, Windgrass ([15]; 31 g ai/ha, scale 0 to 100): 35
Windgrass plant response rating ([15]; 125 g ai/ha, scale 0 to 100 (0 no effect, 100 complete control)): 35
Plant response rating, Mustard, Wild ([16]; 16 g ai/ha, scale of 0 to 100): 95
Plant response rating, Mustard, Wild ([16]; 31 g ai/ha, scale 0 to 100): 95
Mustard, Wild plant response rating ([16]; 62 g ai/ha): 100
Mustard, Wild plant response rating ([16]; 125 g ai/ha): 100
Plant response rating, Nightshade ([17]; 16 g ai/ha, scale of 0 to 100): 85
Plant response rating, Nightshade ([17]; 31 g ai/ha, scale 0 to 100): 80
Nightshade plant response rating ([17]; 62 g ai/ha): 95
Nightshade plant response rating ([17]; 125 g ai/ha): 100
Plant response rating, Field Violet ([18]; 16 g ai/ha, scale of 0 to 100): 60
Plant response rating, Field Violet ([18]; 31 g ai/ha, scale 0 to 100): 70
Field Violet plant response rating ([18]; 62 g ai/ha): 90
Field Violet plant response rating ([18]; 125 g ai/ha): 90
Plant response rating, Field Poppy ([19]; 16 g ai/ha, scale of 0 to 100): 50
Plant response rating, Field Poppy ([19]; 31 g ai/ha, scale 0 to 100): 85
Field Poppy plant response rating ([19]; 62 g ai/ha): 100
Field Poppy plant response rating ([19]; 125 g ai/ha): 100
